Laboratory results: paper PMC2360532, “Somatostatin receptor expression, tumour response, and quality of life in patients with advanced hepatocellular carcinoma treated with long-acting octreotide” (British Journal of Cancer, 2006)

Columns and labels:
[1] = system: patients with advanced HCC; assay: Serious adverse events and tolerability; format: in vivo, human
Description: The planned duration of treatment was 12 months in the absence of disease progression, unacceptable toxicity, or withdrawal at the patient's or doctor's discretion. An extension phase allowed treatment to continue beyond 12 months on an individual basis at the discretion of the principal investigator.
Subjects were seen monthly for clinical review, blood tests, and administration of the study drug. Response was assessed using the RECIST (response evaluation criteria in solid tumours) criteria ([Therasse et al, 2000]). Radiological assessment was undertaken 3-monthly and any partial or complete responses were confirmed 1 month later.

[2] = patients who remained on the study for 6 months or more
From the text: (§1) Blood was also sampled for octreotide pharmacokinetics and assessment of chromogranin A levels before the 4th and 7th doses.
(§2) Samples were taken immediately before the 4th and 7th doses of octreotide (weeks 12 and 24 of treatment). These time points were selected in order to assess trough octreotide plasma concentrations at steady state after three doses and to determine potential octreotide accumulation in this cirrhotic population with more continued dosing. Additional samples were also collected in some cases. […] The lower limit of quantification was 50 pg ml^−1 for a 50 μl plasma sample.

[3] = system: HCC; conditions: ref Kouroumalis et al (1998), cited from earlier work
From the text: High-affinity somatostatin receptors capable of binding octreotide are present in approximately 40% of HCC, and not in adjacent liver. However, the numbers of high-affinity receptors are lower than reported for neuroendocrine tumours ([Reubi et al, 1999]). Somatostatin is a potent inhibitor of several growth factors and angioneogenesis ([Flori ... || Most patients with advanced HCC have a dismal prognosis ([Leung and Johnson, 2001]). However, a treatment that benefits only a subset of patients may still be clinically worthwhile. The very different outcomes in the randomised trials by Kouroumalis and Yuen probably reflect differences in patient selection ([Kouroumalis et al, 1998]; [Yuen et al, 2002]). The Yuen study had subjects with more advanced disease, a higher proportion with viral hepatitis, and a median survival of only 2 months. Our study population was more similar to the Kouroumalis study population (Table 4) and our median survi ...

[4] = cited from earlier work
From the text: Safety is important for people with comorbidities. There is limited information available about the elimination kinetics of octreotide in cirrhosis. […] Since pharmacokinetics may be altered in patients with cirrhosis, it was considered necessary to determine whether liver impairment predisposes to toxicity and ...

[5] = clinical; conditions: human, plasma, im, 20 mg
From the text: as §1, §2

[6] = short-acting form, ref Jenkins et al (1998)

In the case of `C[C@@H](O)[C@@H]1NC(=O)[C@H](CCCCN)NC(=O)[C@@H](Cc2c[nH]c3ccccc23)NC(=O)[C@H](Cc2ccccc2)NC(=O)[C@@H](NC(=O)[C@H](N)Cc2ccccc2)CSSC[C@@H](C(=O)N[C@H](CO)[C@@H](C)O)NC1=O` [octreotide], the “Serious adverse events attributed to the drug” value ([1]; 20 mg i.m. every 28 days, advanced HCC) is reported as “No serious adverse events were attributed”, the “Treatment stopped because of adverse effects (cramps), cases” value ([1]; 63 patients) is reported as “one” and the “Accumulation of octreotide in plasma” value [2] is reported as “no evidence of accumulation”. The Median survival ([3]; short-acting octreotide arm vs 4 months in untreated control, HCC) was 13 months, the 12-month survival ([3]; short-acting octreotide arm vs 13% in untreated control, P=0.002) was 56% and the Plasma concentrations ([4]; 30 mg i.m. dose, six patients with acromegaly (noncirrhotic), ref Stewart et al, 1995) was 1.682 ± 0.174 ng/mL. The “Clearance in patients with cirrhosis” value [4, 6] was “reduced”, the “Half-life in patients with cirrhosis” value [4, 6] was “prolonged” and the level at 2016 h [5] was 2.21 ng/mL. The level at 4032 h [5] was 3.38 ng/mL and the level at 6480 h [5] was 3.24 ng/mL.
